The source made the active and inactive calls. The calls are words filed in the database; no cut-off is given here.
Key:
P2X purinoceptor 7 [1] = target: T1, P2X purinoceptor 7 (Homo sapiens, UniProt Q99572); assay: Antagonist activity at P2X7 receptor in LPS-stimulated human whole blood assessed as inhibition of ATP-induced IL1-beta production treated 30 mins before LPS challenge measured after 3 hrs by ELISA; assay type: functional, tissue-based
T1 sequence (Q99572 whole entry): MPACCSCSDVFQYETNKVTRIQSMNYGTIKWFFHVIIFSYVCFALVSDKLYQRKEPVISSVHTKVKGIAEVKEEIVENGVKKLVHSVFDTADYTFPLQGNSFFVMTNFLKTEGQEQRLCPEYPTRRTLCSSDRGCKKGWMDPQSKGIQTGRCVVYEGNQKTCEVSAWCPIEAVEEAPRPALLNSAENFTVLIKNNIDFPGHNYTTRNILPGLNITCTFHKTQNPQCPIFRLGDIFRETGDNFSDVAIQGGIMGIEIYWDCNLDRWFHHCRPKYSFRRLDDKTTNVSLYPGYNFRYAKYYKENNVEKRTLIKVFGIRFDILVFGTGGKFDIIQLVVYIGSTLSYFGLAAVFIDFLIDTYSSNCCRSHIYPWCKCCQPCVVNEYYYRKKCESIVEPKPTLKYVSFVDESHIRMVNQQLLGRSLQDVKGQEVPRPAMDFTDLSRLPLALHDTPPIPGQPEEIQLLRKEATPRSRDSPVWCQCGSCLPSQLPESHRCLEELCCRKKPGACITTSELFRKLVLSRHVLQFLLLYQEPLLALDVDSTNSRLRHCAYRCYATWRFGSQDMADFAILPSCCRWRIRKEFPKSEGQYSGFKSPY

[2] = AUC in rapid rat model at 10 mg/kg, po; assay type: ADME, organism-based; parameters: dose 10 mg/kg, route oral; conditions: in vivo
[3] = Plasma concentration in rapid rat model plasma at 10 mg/kg, po after 6 hrs; assay type: ADME, organism-based; parameters: dose 10 mg/kg, route oral
[4] = Inhibition of sodium channel site 2 at 10 uM
Rattus norvegicus [5] = assay: Analgesic activity in rat chronic constriction injury neuroinflammatory pain model at 1 to 3 mg/kg, po after 4 hrs; assay type: functional, organism-based
P2X purinoceptor 7 [6] = target: T2, P2X purinoceptor 7 (Rattus norvegicus, UniProt Q64663); assay: Antagonist activity at P2X7 receptor in rat whole blood; assay type: functional, tissue-based
T2 sequence (Q64663 whole entry): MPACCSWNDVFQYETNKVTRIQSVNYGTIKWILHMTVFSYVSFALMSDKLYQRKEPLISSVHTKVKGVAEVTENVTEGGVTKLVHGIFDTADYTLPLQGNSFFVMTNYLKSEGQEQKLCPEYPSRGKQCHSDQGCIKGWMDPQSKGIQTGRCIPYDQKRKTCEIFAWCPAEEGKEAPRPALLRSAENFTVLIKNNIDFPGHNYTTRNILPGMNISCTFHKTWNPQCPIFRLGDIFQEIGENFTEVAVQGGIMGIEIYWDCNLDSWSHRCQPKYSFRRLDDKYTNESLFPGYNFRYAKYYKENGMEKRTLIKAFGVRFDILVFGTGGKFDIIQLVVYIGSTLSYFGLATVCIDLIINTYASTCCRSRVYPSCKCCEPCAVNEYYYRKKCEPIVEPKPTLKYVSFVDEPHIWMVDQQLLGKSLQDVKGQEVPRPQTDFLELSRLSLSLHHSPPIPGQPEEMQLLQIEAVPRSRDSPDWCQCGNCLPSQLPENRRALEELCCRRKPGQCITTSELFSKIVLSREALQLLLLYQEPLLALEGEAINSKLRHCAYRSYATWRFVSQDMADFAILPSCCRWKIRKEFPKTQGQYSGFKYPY

Rattus norvegicus [7] = assay: Analgesic activity in rat streptozocin-induced diabetic neuropathy model at 10 mg/kg, po after 4 hrs; assay type: functional, organism-based; parameters: dose 10 mg/kg
Rattus norvegicus [8] = assay: Analgesic activity in rat chronic constriction injury neuroinflammatory pain model at 60 mg/kg, po after 4 hrs relative to gabapentin; assay type: functional, organism-based; parameters: dose 60 mg/kg
[9] = target: T3, P2X purinoceptor 4 (Homo sapiens) (UniProt Q99571); assay: Inhibition of P2X4 receptor at 10 uM
T3 sequence (whole entry): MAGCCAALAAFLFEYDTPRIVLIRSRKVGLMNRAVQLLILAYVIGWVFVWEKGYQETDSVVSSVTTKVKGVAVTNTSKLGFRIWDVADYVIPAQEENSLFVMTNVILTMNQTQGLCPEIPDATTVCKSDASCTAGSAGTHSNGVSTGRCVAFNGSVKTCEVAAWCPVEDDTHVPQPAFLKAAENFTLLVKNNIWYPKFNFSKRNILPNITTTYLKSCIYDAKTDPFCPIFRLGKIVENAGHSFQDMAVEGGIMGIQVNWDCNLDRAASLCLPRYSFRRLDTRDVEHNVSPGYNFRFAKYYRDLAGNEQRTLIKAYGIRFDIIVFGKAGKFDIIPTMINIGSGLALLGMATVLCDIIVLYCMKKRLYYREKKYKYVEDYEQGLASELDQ

[10] = target: Sodium-dependent noradrenaline transporter (Homo sapiens) (UniProt P23975); assay: Inhibition of norepinephrine transporter at 10 uM
Sodium-dependent noradrenaline transporter (Homo sapiens), sequence (P23975 whole entry): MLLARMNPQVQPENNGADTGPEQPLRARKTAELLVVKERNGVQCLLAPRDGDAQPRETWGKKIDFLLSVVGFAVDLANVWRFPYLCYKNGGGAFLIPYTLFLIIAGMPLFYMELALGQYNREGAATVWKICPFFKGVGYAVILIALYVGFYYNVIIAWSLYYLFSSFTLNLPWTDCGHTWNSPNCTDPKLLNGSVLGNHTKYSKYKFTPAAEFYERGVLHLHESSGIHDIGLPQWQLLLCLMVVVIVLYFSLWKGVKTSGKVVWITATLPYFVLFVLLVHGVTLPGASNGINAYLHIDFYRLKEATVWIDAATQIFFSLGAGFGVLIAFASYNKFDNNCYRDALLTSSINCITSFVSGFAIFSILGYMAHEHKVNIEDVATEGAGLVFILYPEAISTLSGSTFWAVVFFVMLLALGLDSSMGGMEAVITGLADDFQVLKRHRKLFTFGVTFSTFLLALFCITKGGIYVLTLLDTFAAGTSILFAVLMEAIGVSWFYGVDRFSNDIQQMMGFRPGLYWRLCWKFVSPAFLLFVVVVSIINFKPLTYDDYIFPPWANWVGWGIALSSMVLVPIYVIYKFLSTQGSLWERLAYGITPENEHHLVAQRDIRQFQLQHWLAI

[11] = Inhibition of L-type calcium channel diltiazem binding site at 10 uM
Rattus norvegicus [12] = assay: Antihyperalgesic activity in rat mono-iodacetate-induced hyperalgesia model at 1 to 3 mg/kg, po after 4 hrs; assay type: functional, organism-based
Rattus norvegicus [13] = assay: Analgesic activity in rat spinal nerve ligation neuropathic pain model at 10 to 30 mg/kg, po after 4 hrs relative to pregabalin; assay type: functional, organism-based
Rattus norvegicus [14] = assay: Antihyperalgesic activity in rat mono-iodacetate-induced hyperalgesia model at 50 mg/kg, po after 4 hrs relative to naproxen; assay type: functional, organism-based; parameters: dose 50 mg/kg
Rattus norvegicus [15] = assay: Analgesic activity in rat streptozocin-induced diabetic neuropathy model at 10 mg/kg, po after 4 hrs relative to gabapentin; assay type: functional, organism-based; parameters: dose 10 mg/kg
[16] = Inhibition of chloride channel at 10 uM

| Structure (SMILES) | IC50 (P2X purinoceptor 7 [1]) | AUC [2] | concentration at 6 h [3] | also measured |
| --- | --- | --- | --- | --- |
| CCN1C(=O)c2nc(-c3ccc(-c4cc(F)cc(F)c4)nc3)n(Cc3ccc(F)c(F)c3)c2N2CC(C)(C)N=C12 | 55 nM | 7.54 µM·h | 1260 nM | – |
| CCN1C(=O)c2nc(-c3ccc(-c4ccccc4)nc3)n(Cc3ccc(F)c(F)c3)c2N2CC(C)(C)N=C12 | 24 nM | 13.7 µM·h | 2640 nM | – |
| CCN1C(=O)c2nc(-c3ccc(-c4ccc(OC)cc4)nc3)n(Cc3ccc(F)c(F)c3)c2N2CC(C)(C)N=C12 | 50 nM | – | – | – |
| CCN1C(=O)c2nc(-c3ccc(-c4ccccc4)cc3)n(Cc3cc(F)cc(F)c3)c2N2C[C@@H](C(C)C)N=C12 | 107 nM | 1.11 µM·h | 93 nM | – |
| CCN1C(=O)c2nc(-c3ccc(-c4ccccc4)cc3)n(Cc3cccc(F)c3F)c2N2C[C@@H](C(C)C)N=C12 | 870 nM | – | – | – |
| CCN1C(=O)c2nc(-c3ccc(-c4cccc(C)c4)nc3)n(Cc3ccc(F)c(F)c3)c2N2CC(C)(C)N=C12 | 25 nM | 0.231 µM·h | – | – |
| CCN1C(=O)c2nc(-c3ccc(-c4ccccc4OC)nc3)n(Cc3ccc(F)c(F)c3)c2N2CC(C)(C)N=C12 | 101 nM | 1.62 µM·h | 224 nM | – |
| CCN1C(=O)c2nc(-c3ccc(-c4ccc(C)cc4)nc3)n(Cc3ccc(F)c(F)c3)c2N2CC(C)(C)N=C12 | 39 nM | – | – | – |
| CCN1C(=O)c2nc(-c3ccc(-c4ccccc4)cc3)n(Cc3ccc(F)cc3F)c2N2CC(C)(C)N=C12 | 700 nM | – | – | – |
| CCN1C(=O)c2nc(-c3ccc(-c4ccc(F)cc4F)nc3)n(Cc3ccc(F)c(F)c3)c2N2CC(C)(C)N=C12 | 95 nM | 4.14 µM·h | 537 nM | – |
| CCN1C(=O)c2nc(-c3ccc(-c4ccccc4)cc3)n(Cc3ccc(F)c(F)c3)c2N2CCC(C)(C)N=C12 | 108 nM | – | – | – |
| CCN1C(=O)c2nc(-c3ccc(-c4cccc(F)c4)nc3)n(Cc3ccc(F)c(F)c3)c2N2CC(C)(C)N=C12 | 28 nM | 3.56 µM·h | 897 nM | – |
| CCN1C(=O)c2nc(-c3ccc(-c4cccc(OC(F)(F)F)c4)nc3)n(Cc3ccc(F)c(F)c3)c2N2CC(C)(C)N=C12 | 110 nM | – | – | – |
| CCN1C(=O)c2nc(-c3ccc(-c4ccccc4)cc3)n(Cc3ccc(F)cc3)c2N2CC(C)(C)N=C12 | 276 nM | – | – | – |
| CCN1C(=O)c2nc(-c3ccc(-c4ccccc4)cc3)n(Cc3cc(F)cc(F)c3)c2N2CC(C)(C)N=C12 | 91 nM | – | – | – |
| CCN1C(=O)c2nc(-c3ccc(-c4cccc(C(F)(F)F)c4)nc3)n(Cc3ccc(F)c(F)c3)c2N2CC(C)(C)N=C12 | 104 nM | 1.84 µM·h | 395 nM | – |
| CCN1C(=O)c2nc(-c3ccc(-c4ccc(F)cc4)nc3)n(Cc3ccc(F)c(F)c3)c2N2CC(C)(C)N=C12 | 45 nM | 3.56 µM·h | 897 nM | – |
| CCN1C(=O)c2nc(-c3ccc(-c4ccccc4)cc3)n(Cc3ccc(F)c(F)c3)c2N2CC3(CCCCC3)N=C12 | 388 nM | – | – | – |
| CCN1C(=O)c2nc(-c3ccc(-c4ccc(C(F)(F)F)cc4)nc3)n(Cc3ccc(F)c(F)c3)c2N2CC(C)(C)N=C12 | 137 nM | 5.68 µM·h | 1570 nM | – |
| CCN1C(=O)c2nc(-c3ccc(-c4ccccc4)cc3)n(Cc3cccc(F)c3)c2N2C[C@@H](C(C)C)N=C12 | 269 nM | – | – | – |
| CCN1C(=O)c2nc(-c3ccc(-c4ccccc4)cc3)n(Cc3ccc(F)cc3F)c2N2C[C@@H](C(C)C)N=C12 | 845 nM | – | – | – |
| CCN1C(=O)c2nc(-c3ccc(-c4ccccc4)cc3)n(Cc3cc(F)ccc3F)c2N2C[C@@H](C(C)C)N=C12 | 1040 nM | – | – | – |
| CCN1C(=O)c2nc(-c3ccc(-c4ccccc4)cc3)n(Cc3ccccc3F)c2N2C[C@@H](C(C)C)N=C12 | 937 nM | – | – | – |
| CCN1C(=O)c2nc(-c3ccc(-c4ccccc4)cc3)n(Cc3ccc(F)c(F)c3)c2N2CC(C)(C)N=C12 | 85 nM | 6.86 µM·h | 1370 nM | inhibition [4]: > 80%; Activity (Rattus norvegicus [5]): Active; IC50 (P2X purinoceptor 7 [6]): 121 nM; Activity (Rattus norvegicus [7]): Active; Activity (Rattus norvegicus [8]): Active; inhibition [9]: 55%; inhibition [10]: > 80%; inhibition [11]: > 80%; Activity (Rattus norvegicus [12]): Active; Activity (Rattus norvegicus [13]): Active; Activity (Rattus norvegicus [14]): Active; Activity (Rattus norvegicus [15]): Active; inhibition [16]: > 80% |
| CCN1C(=O)c2nc(-c3ccc(-c4ccc(OC(F)(F)F)cc4)nc3)n(Cc3ccc(F)c(F)c3)c2N2CC(C)(C)N=C12 | 1940 nM | – | – | – |
| CCN1C(=O)c2nc(-c3ccc(-c4ccccc4F)nc3)n(Cc3ccc(F)c(F)c3)c2N2CC(C)(C)N=C12 | 52 nM | 2.71 µM·h | 537 nM | – |
| CCN1C(=O)c2nc(-c3ccc(-c4ccccc4)cc3)n(Cc3ccc(F)c(F)c3)c2N2C[C@@H](C(C)C)N=C12 | 178 nM | 3.76 µM·h | 392 nM | – |
| CCN1C(=O)c2nc(-c3ccc(-c4ccccc4)cc3)n(Cc3ccc(F)cc3)c2N2C[C@@H](C(C)C)N=C12 | 237 nM | – | – | – |

From ChEMBL document CHEMBL1921725, “Synthesis and SAR development of novel P2X7 receptor antagonists for the treatment of pain: part 2” (Bioorg Med Chem Lett, 2011)
